Here are results for 2 compounds from publication PMC12196321, “Discovery of Novel Inhibitors of Aspergillus fumigatus DHODH via Virtual Screening, MD Simulation, and In Vitro Activity Assay” (Molecules, 2025).

The experiment concerns the target T1, Aspergillus fumigatus dihydroorotate dehydrogenase (AfDHODH) (Aspergillus fumigatus, UniProt Q4X169).
T1 construct: gene AFUA_2G11010; residues 89–531 with an N-terminal His-tag
T1 sequence (Q4X169 89-531): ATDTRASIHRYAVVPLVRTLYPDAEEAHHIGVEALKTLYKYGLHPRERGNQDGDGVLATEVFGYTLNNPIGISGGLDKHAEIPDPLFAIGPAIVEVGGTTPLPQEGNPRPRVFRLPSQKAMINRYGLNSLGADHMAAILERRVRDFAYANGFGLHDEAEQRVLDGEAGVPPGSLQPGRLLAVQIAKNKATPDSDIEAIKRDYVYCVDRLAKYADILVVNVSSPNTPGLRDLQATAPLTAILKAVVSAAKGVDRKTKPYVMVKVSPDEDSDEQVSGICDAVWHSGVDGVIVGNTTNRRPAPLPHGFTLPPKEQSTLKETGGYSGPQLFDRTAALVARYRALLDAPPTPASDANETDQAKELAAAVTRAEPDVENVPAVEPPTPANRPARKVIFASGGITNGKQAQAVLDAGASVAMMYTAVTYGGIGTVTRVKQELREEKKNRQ
Put plainly: DCIP colorimetric enzyme assay (absorbance at […] nm). In kind it is biochemical.

For `COC(=O)c1c(NC(=S)NNC(=O)c2ccc(Cl)s2)sc(C(=O)N(C)C)c1C` [CHEMBL1509241], the IC50 worked out at 16.9 µM.
The value for `COC(=O)c1c(NC(=S)NNC(=O)c2ccc(Cl)s2)sc(C(=O)N(C)C)c1C` [ZINC67300323] was 57.3 µM.
